Several values for one entry are separate records, joined by “and”; a condition that tells them apart may be missing. Equal values may be shown once. Inconclusive results and toxic doses are left out.

The assay has as its system L1210 leukemia ip in BDF1 mice, survival T/C. Nature of the assay: NCI In Vivo Anticancer Drug Screen. Data for tumor model L1210 Leukemia (intraperitoneal) in B6D2F1 (BDF1) mice. To be noted: endpoint: mean survival time, higher = longer survival. In short, it runs like this:
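In this screen, tumor-bearing mice given compound are compared to those given vehicle, and their survival values are reported as a treated-to-control quotient.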

The mark [1] stands for this setting: dose: 100.0 mg/kg/injection, schedule: Q04DX003 (ip), vehicle: saline.
The mark [2] stands for this setting: dose: 200.0 mg/kg/injection, schedule: Q04DX003 (ip), vehicle: saline.
Setting [3] is: dose: 400.0 mg/kg/injection, schedule: Q04DX003 (ip), vehicle: saline.
Where [4] appears, read: dose: 100.0 mg/kg/injection, schedule: Q01DX001 (ip), vehicle: carboxymethylcellulose (CMC).
The mark [5] stands for this setting: dose: 100.0 mg/kg/injection, schedule: Q01DX009 (ip), vehicle: saline with Tween-80.
[6] abbreviates: dose: 100.0 mg/kg/injection, schedule: Q04DX003 (ip), vehicle: saline with Tween-80.
Setting [7] is: dose: 200.0 mg/kg/injection, schedule: Q01DX009 (ip), vehicle: saline with Tween-80.
Where [8] appears, read: dose: 200.0 mg/kg/injection, schedule: Q04DX003 (ip), vehicle: saline with Tween-80.
The mark [9] stands for this setting: dose: 400.0 mg/kg/injection, schedule: Q04DX003 (ip), vehicle: saline with Tween-80.
The mark [10] stands for this setting: dose: 100.0 mg/kg/injection, schedule: Q04DX002 (ip), vehicle: saline.
The mark [11] stands for this setting: dose: 200.0 mg/kg/injection, schedule: Q04DX002 (ip), vehicle: saline.
The mark [12] stands for this setting: dose: 100.0 mg/kg/injection, schedule: Q01DX001 (ip), vehicle: Klucel (hydroxypropylcellulose) (HPC).
[13] abbreviates: dose: 200.0 mg/kg/injection, schedule: Q01DX001 (ip), vehicle: Klucel (hydroxypropylcellulose) (HPC).
Setting [14] is: dose: 400.0 mg/kg/injection, schedule: Q01DX001 (ip), vehicle: Klucel (hydroxypropylcellulose) (HPC).
The mark [15] stands for this setting: dose: 400.0 mg/kg/injection, schedule: Q01DX009 (ip), vehicle: saline with Tween-80.
The mark [16] stands for this setting: dose: 100.0 mg/kg/injection, schedule: Q01DX009 (ip), vehicle: Klucel (hydroxypropylcellulose) (HPC).
Setting [17] is: dose: 200.0 mg/kg/injection, schedule: Q01DX009 (ip), vehicle: Klucel (hydroxypropylcellulose) (HPC).

In the case of `CC12C(=O)c3ccccc3C(=O)C1C1CCCCC1=C1CCCCC12` (stereo not given), the T/C was 93 % of control (dose: 100.0 mg/kg/injection, schedule: Q04DX002 (ip), vehicle: Klucel (hydroxypropylcellulose) (HPC)); 93 % of control (dose: 200.0 mg/kg/injection, schedule: Q04DX002 (ip), vehicle: Klucel (hydroxypropylcellulose) (HPC)); 101 % of control (dose: 400.0 mg/kg/injection, schedule: Q04DX002 (ip), vehicle: Klucel (hydroxypropylcellulose) (HPC)).

With `COC(=O)CCCNC(=O)/C=C1/c2cc(OC)c(OC)cc2CCC1S(=O)(=O)OC` (stereo not given), the T/C is 100 % of control (dose: 100.0 mg/kg/injection, schedule: Q01DX009 (ip), vehicle: saline); 105 % of control under setting [1]; 110 % of control (dose: 200.0 mg/kg/injection, schedule: Q01DX009 (ip), vehicle: saline); 97 % of control under setting [2]; 88 % of control (dose: 400.0 mg/kg/injection, schedule: Q01DX009 (ip), vehicle: saline); 100 % of control under setting [3].

Consider `O=C(COc1cccc(Cl)c1)NCc1ccccc1NC(=O)c1cccc(S(=O)(=O)F)c1`, for which the T/C is 90 % of control under setting [4]; 95 % of control (dose: 200.0 mg/kg/injection, schedule: Q01DX001 (ip), vehicle: carboxymethylcellulose (CMC)); 95 % of control (dose: 400.0 mg/kg/injection, schedule: Q01DX001 (ip), vehicle: carboxymethylcellulose (CMC)).

Regarding `C=CCc1cc(Cl)ccc1OCC(=O)O`, the T/C was 97 % of control (dose: 100.0 mg/kg/injection, schedule: Q01DX009 (ip), vehicle: gum acacia) and 96 % of control (dose: 200.0 mg/kg/injection, schedule: Q01DX009 (ip), vehicle: gum acacia).

Take `CN(C)CCCn1c(=O)c2ccccc2c2ccccc21`: the T/C (dose: 50.0 mg/kg/injection, schedule: Q01DX001 (ip), vehicle: saline) is 101 % of control; the T/C (dose: 50.0 mg/kg/injection, schedule: Q01DX015 (ip), vehicle: saline) is 98 % of control; the T/C (dose: 100.0 mg/kg/injection, schedule: Q01DX001 (ip), vehicle: saline) was 103 % of control; the T/C (dose: 100.0 mg/kg/injection, schedule: Q01DX015 (ip), vehicle: saline) was 108 % of control.

For the compound `Cc1ccc(CCl)cc1`, the T/C is, setting by setting: under setting [5], 102 % of control; under setting [6], 100 % of control; under setting [7], 102 % of control; under setting [8], 104 % of control; under setting [9], 102 % of control.

As for `N#Cc1nc2c(nc1C#N)-c1ccccc1C2=O`, the T/C was 99 % of control (dose: 6.25 mg/kg/injection, schedule: Q01DX009 (ip), vehicle: Klucel (hydroxypropylcellulose) (HPC)); 94 % of control (dose: 12.5 mg/kg/injection, schedule: Q01DX009 (ip), vehicle: Klucel (hydroxypropylcellulose) (HPC)); 104 % of control (dose: 12.5 mg/kg/injection, schedule: Q04DX003 (ip), vehicle: Klucel (hydroxypropylcellulose) (HPC)); 112 % of control (dose: 25.0 mg/kg/injection, schedule: Q04DX003 (ip), vehicle: Klucel (hydroxypropylcellulose) (HPC)).

For the compound `CCOC(=O)N(OCc1ccccc1)P(=O)(N1CC1(C)C)N1CC1(C)C` (stereo not given), the T/C reads like this: under setting [10], 158 % of control; under setting [11], 153 % of control.

As to `CCOC(=O)c1cnc(SC)nc1Nc1ccc(Cl)c(Cl)c1`, the T/C by setting is: under setting [12], 97 % of control; under setting [13], 96 % of control; under setting [14], 97 % of control.

Turning to `Cc1cc(C)n(-c2nn3nnnc3c3ccccc23)n1`, the T/C by setting is: (dose: 62.5 mg/kg/injection, schedule: Q04DX003 (ip), vehicle: saline) 101 % of control; (dose: 125.0 mg/kg/injection, schedule: Q04DX003 (ip), vehicle: saline) 95 % of control; (dose: 250.0 mg/kg/injection, schedule: Q04DX003 (ip), vehicle: saline) 93 % of control.

`COc1ccc(Cl)c(NC(=O)Nc2cc(Cl)ccc2C)c1`: the T/C runs as follows: under setting [5], 94 % of control and 95 % of control; (dose: 100.0 mg/kg/injection, schedule: Q04DX002 (ip), vehicle: saline with Tween-80) 98 % of control and 91 % of control; under setting [7], 90 % of control; (dose: 200.0 mg/kg/injection, schedule: Q04DX002 (ip), vehicle: saline with Tween-80) 95 % of control and 91 % of control; under setting [15], 93 % of control; (dose: 400.0 mg/kg/injection, schedule: Q04DX002 (ip), vehicle: saline with Tween-80) 87 % of control and 90 % of control.

Regarding `O=NN(CCCl)C(=O)Nc1ccccc1Cl`, the T/C under setting [4] was 87 % of control.

Consider `CCOC(=O)C(C)(Br)C(Br)c1ccc([N+](=O)[O-])cc1` (stereo not given), for which the T/C is, setting by setting: under setting [16], 96 % of control; (dose: 100.0 mg/kg/injection, schedule: Q04DX003 (ip), vehicle: Klucel (hydroxypropylcellulose) (HPC)) 101 % of control; under setting [17], 93 % of control; (dose: 200.0 mg/kg/injection, schedule: Q04DX003 (ip), vehicle: Klucel (hydroxypropylcellulose) (HPC)) 101 % of control; (dose: 400.0 mg/kg/injection, schedule: Q01DX009 (ip), vehicle: Klucel (hydroxypropylcellulose) (HPC)) 98 % of control; (dose: 400.0 mg/kg/injection, schedule: Q04DX003 (ip), vehicle: Klucel (hydroxypropylcellulose) (HPC)) 108 % of control.

In the case of `COc1ccc2c(c1)N(C)CCCC2=O`, the T/C was 96 % of control under setting [1], 112 % of control under setting [2] and 87 % of control under setting [3].

With `COc1ccc(CC2COC(O)C2Cc2ccc(OC3OC(CO)C(O)C(O)C3O)c(OC)c2)cc1OC` (stereo not given), the T/C reads like this: under setting [10], 102 % of control; under setting [11], 112 % of control; (dose: 400.0 mg/kg/injection, schedule: Q04DX002 (ip), vehicle: saline) 87 % of control.

Regarding `CSc1ccc(NC(=O)CCCc2ccc(N(CCCl)CCCl)cc2)cc1`, the T/C (dose: 4.0 mg/kg/injection, schedule: Q12HX018 (ip), vehicle: other) was 103 % of control; the T/C (dose: 6.0 mg/kg/injection, schedule: Q12HX018 (ip), vehicle: other) was 108 % of control; the T/C (dose: 8.0 mg/kg/injection, schedule: Q12HX018 (ip), vehicle: other) was 115 % of control.

Regarding `Nc1c(Cl)cc(Cl)c(-c2c(Cl)cc(Cl)c([N+](=O)[O-])c2Cl)c1Cl`, the T/C runs as follows: under setting [12], 106 % of control; under setting [13], 101 % of control; under setting [14], 95 % of control.

Consider `O=C1C2C=CC=CC1C=C2`, for which the T/C by setting is: (dose: 50.0 mg/kg/injection, schedule: Q01DX009 (ip), vehicle: Klucel (hydroxypropylcellulose) (HPC)) 89 % of control; under setting [12], 92 % of control; under setting [16], 112 % of control; under setting [13], 101 % of control; under setting [17], 91 % of control; under setting [14], 95 % of control.

On to `CN(Cc1ccccc1O)C1CC2CCC1(C)C2(C)C` (stereo not given), for which the T/C runs as follows: (dose: 50.0 mg/kg/injection, schedule: Q04DX002 (ip), vehicle: saline) 97 % of control; under setting [10], 101 % of control.

With `CC(=O)Oc1ccc(N)cc1OC(C)=O`, the T/C (dose: 150.0 mg/kg/injection, schedule: Q01DX001 (ip), vehicle: steriod suspending solution) was 95 % of control.

In the case of `Nc1ncc2c(n1)SCC2`, the T/C is, setting by setting: (dose: 5.0 mg/kg/injection, schedule: Q01DX001 (ip), vehicle: saline) 104 % of control; (dose: 10.0 mg/kg/injection, schedule: Q01DX001 (ip), vehicle: saline) 104 % of control; (dose: 20.0 mg/kg/injection, schedule: Q01DX001 (ip), vehicle: saline) 102 % of control; (dose: 40.0 mg/kg/injection, schedule: Q01DX001 (ip), vehicle: saline) 102 % of control; (dose: 80.0 mg/kg/injection, schedule: Q01DX001 (ip), vehicle: saline) 116 % of control.

On to `O=C1NC(=O)c2ncccc21`, for which the T/C under setting [5] is 90 % of control; the T/C under setting [6] is 87 % of control; the T/C under setting [7] was 95 % of control; the T/C under setting [8] is 103 % of control; the T/C under setting [15] was 97 % of control; the T/C under setting [9] is 100 % of control.
